Patent US12522569B2, “Substituted benzimidazole derivative and use thereof” (Chengdu FANXI Biopharma Co., Ltd., priority 2020, dated 2026)

Experiments:
Assay type in all cases: cell-based
hPPARα (LBD) = target: T1, hPPARα (LBD) (Homo sapiens, UniProt Q07869); assay: GAL4-hPPARα (LBD) luciferase reporter transactivation in CV-1 cells; conditions: about 40 hours, relative to GW-590735 as 100%, read-out: PPAR activities EC50 PPARα
T1 construct: The receptor expression plasmid (pSG5-GAL4-hPPARα or γ or δ (LBD)); GAL4 (fusion partner); expressed in transfected cells; host or cells: CV-1 cells (ATCC)
T1 sequence (Q07869 239-466 limits assumed): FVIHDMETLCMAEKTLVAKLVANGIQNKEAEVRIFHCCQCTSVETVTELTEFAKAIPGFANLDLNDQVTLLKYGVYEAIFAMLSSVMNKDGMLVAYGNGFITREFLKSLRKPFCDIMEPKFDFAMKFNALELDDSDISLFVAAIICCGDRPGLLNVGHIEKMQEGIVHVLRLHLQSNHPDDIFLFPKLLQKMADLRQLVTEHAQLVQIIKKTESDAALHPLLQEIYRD
Procedure: (§1) The PPARδ activation effect of the compounds of the present invention was determined as follows (measurement of the PPAR activation effect of the test compounds (compounds in the examples)).
(§2) The receptor expression plasmid (pSG5-GAL4-hPPARα or γ or δ (LBD)), luciferase expression plasmid (pUC8-MH100×4-TK-Luc) and β-galactosidase expression plasmid (pCMX-β-GAL) (Kliewer, S. A. et. al., (1992) Nature, 358:771-774) were introduced into CV-1 cells (ATCC).
(§3) After gene introduction using the lipofection reagent DMRIE-C or Lipofectamin 2000 (Invitrogen), the cells were cultured in the presence of the test compound for 42 hours. Lysed cells were tested for luciferase activity and β-GAL activity.
(§4) The following methods were used to determine the PPAR activation effect of the tested compounds (compounds in the examples)
(§5) Receptor expression plasmid (pSG5-GAL4-hPPARα, 7 or 6 (LBD)), luciferase expression plasmid (pUC8-MH100×4-TK-Luc) and β-Galactosidase expression plasmid (pCMX-β-GAL) (Kilewer, S. A. et. al., (1992) Nature, 358: 771-774) were introduced into CV-1 cells (ATCC). After gene introduction using a lipofection reagent (Lipofectamine 2000 (Invitrogen)), the cells were cultured in the presence of the test compounds for about 40 hours.

hPPARγ (LBD) = target: T2, hPPARγ (LBD) (Homo sapiens, UniProt P37231); assay: GAL4-hPPARγ (LBD) luciferase reporter transactivation in CV-1 cells; conditions: about 40 hours, relative to Rosiglitazone as 100%, read-out: PPAR activities EC50 PPARγ
T2 construct: The receptor expression plasmid (pSG5-GAL4-hPPARα or γ or δ (LBD)); GAL4 (fusion partner); expressed in transfected cells; host or cells: CV-1 cells (ATCC)
T2 sequence (P37231 238-503 limits assumed): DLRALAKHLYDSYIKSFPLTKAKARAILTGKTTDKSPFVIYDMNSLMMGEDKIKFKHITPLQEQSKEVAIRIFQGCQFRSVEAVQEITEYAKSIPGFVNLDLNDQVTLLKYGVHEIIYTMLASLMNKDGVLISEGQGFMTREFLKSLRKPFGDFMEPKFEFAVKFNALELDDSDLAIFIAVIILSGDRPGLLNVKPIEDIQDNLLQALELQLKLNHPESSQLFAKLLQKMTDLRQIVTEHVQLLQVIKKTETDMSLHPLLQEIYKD
Procedure: as §1, §2, §3, §4, §5

hPPARδ (LBD) = target: T3, hPPARδ (LBD) (Homo sapiens, UniProt Q03181); assay: GAL4-hPPARδ (LBD) luciferase reporter transactivation in CV-1 cells; conditions: about 40 hours, relative to GW-501516 as 100%, read-out: PPAR activities EC50 PPARδ
T3 construct: The receptor expression plasmid (pSG5-GAL4-hPPARα or γ or δ (LBD)); GAL4 (fusion partner); expressed in transfected cells; host or cells: CV-1 cells (ATCC)
T3 sequence (Q03181 211-439 limits assumed): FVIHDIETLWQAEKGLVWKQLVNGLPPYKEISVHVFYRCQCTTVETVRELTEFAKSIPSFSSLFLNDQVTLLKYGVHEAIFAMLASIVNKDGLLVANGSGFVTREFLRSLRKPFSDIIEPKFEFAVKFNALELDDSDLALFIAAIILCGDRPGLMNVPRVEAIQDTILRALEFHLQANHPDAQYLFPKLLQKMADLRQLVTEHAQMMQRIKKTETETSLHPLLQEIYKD
Procedure: as §1, §2, §3, §4, §5

SMILES	EC50 (hPPARα (LBD))	EC50 (hPPARγ (LBD))	EC50 (hPPARδ (LBD))
CCc1cc(COc2ccccc2Cn2c(CCc3ccc(Cl)cc3Cl)nc3cc(Br)ccc32)ccc1CCC(=O)O [Compound 3, 3-(4-((2-((5-Bromo-2-(2.4-dichlorophenethyl)-1H-benzo[d]imidazol-1-yl)methyl)phenoxy)methyl)-2-ethylphenyl)propanoic acid]	104 nM	186 nM	36.5 nM
CCc1cc(COc2ccccc2Cn2c(CN3CCCC3)nc3cc(Br)ccc32)ccc1CCC(=O)O [Compound 14]	3420 nM	672 nM	142 nM
CCc1cc(COc2ccccc2Cn2c(CCCN3CCCC3)nc3cc(Br)ccc32)ccc1OCC(=O)O [Compound 15, 2-(4-((2-((5-Bromo-2-(3-(pyrrolidin-1-yl)propyl)-1H-benzo[d]imidazol-1-yl)methyl)phenoxy)methyl)-2-ethylphenoxy)acetic acid]	2110 nM	9110 nM	6560 nM
CCc1cc(COc2ccccc2Cn2c(CCCN3CCCC3)nc3cc(Br)ccc32)ccc1CCC(=O)O [Compound 17, 3-(4-((2-((5-Bromo-2-(3-(pyrrolidin-1-yl)propyl)-1H-benzo[d]imidazol-1-yl)methyl)-phenoxy)methyl)-2-ethylphenyl)propanoic acid]	3050 nM	15400 nM	41800 nM
CCc1cc(COc2ccccc2Cn2c(CN3CCCC3)nc3cc(Br)ccc32)ccc1OCC(=O)O [Compound 50]	3990 nM	2040 nM	803 nM
